Patent publication US20120195856A1, “Method of treating patients with cardiovascular illness” (priority 2011, published 2012)
Read-outs that look alike come from different tables or passages of the source.

Experiments:
[1] = set-up: species or system human; details: in vivo
From the text: The use of the antiviral drug is not useful for a longer period, as the remission period begins for the patient and the drug is ineffective.

[2] = type: in vivo, human
From the text: Example 1. Patient, came to the clinic with a diagnosis of ischemic heart disease. Exertional angina, functional class III. Postinfarction cardiosclerosis (myocardial infarction in 1981). Atherosclerosis of the coronary arteries. Circulatory deficiency stage IIA. Cerebral atherosclerosis. Chronic cerebral impairment. Symptomatic hypertension. At arrival, complained of a squeezing pain in the area of the heart with radiation to the right hand, which arise both at rest and during physical activity (up to 4-5 times per day) and were relieved by taking nitroglycerin (up to 8 times per day), as well as shortness of breath while walking, vertigo, periodic headaches, ringing in the ears, irritability, and insomnia. The patient was prescribed treatment: anti-angina drugs (Nitrosorbidum 30 mg/day, Corinfar 30 mg/day; also has hypotensive activity), and Valacyclovir 2 tablets (1.0 g) three times a day. […] The atherogenesis index fell from 4.74 to 3.38, and there was an increase in cholesterol/HDL from 1.17 mmol/l to 1.20 mmol/l. During the treatment process, a slowing in the free-radical acidization of lipids was seen; the content of serum malondialdehyde fell from 0.50 mcmol/ml to 0.31 mcmol/ml, diethynoid conjugates fell from 1.332 mcmol/ml to 0.70 mcmol/ml, triethynoid conjugates declined from 0.23 mcmol/ml to 0.14 mcmol/ml; the a-tocopherol content recovered from 2.69 mcmol/ml to 4.32 mcmol/ml; the glutathione reductase activity went from 12.4 mcmol/l h to 22.0 mcmol/l h. On the electrocardiogram, a decrease in the T index from 35.0 to 0, in the SST from 11.0 to 0, and in the NST from 10.0 to 0 were seen. […] Angina pain and shortness of breath not present; nitroglycerine tablets not used. Vertigo and headaches had decreased.
Thus in the process of treatment, in the patient who took Valacyclovir, lipidogram, peroxide acidization of lipids, electrocardiography, and tetrapolar rheography indicators normalized. Valacyclovir side effects were not observed.

[3] = Patient M.
[4] = Example 4: patient with ischemic heart disease, lipid and liver complexes after Zocor and then combination anti-viral therapy; type: in vivo, human; details: after six months of Zocor 20 mg/day, goal indicator 4.0

| SMILES | long-term remission of the illness or substantial positive stabilization of the patient's condition [1] | serum malondialdehyde content ([2]; after Valacyclovir 1.0 g three times a day + anti-angina drugs, before 0.50) [mcmol/ml] | LDL in blood serum ([2]; after Valacyclovir 1.0 g three times a day + anti-angina drugs, before 1.55) [mmol/L] | cholesterol/LDL in blood serum ([2]; after Valacyclovir 1.0 g three times a day + anti-angina drugs, before 3.99) [mmol/L] | electrocardiogram NST ([2]; after Valacyclovir 1.0 g three times a day + anti-angina drugs, before 10.0) | electrocardiogram SST ([2]; after Valacyclovir 1.0 g three times a day + anti-angina drugs, before 11.0) | electrocardiogram T index ([2]; after Valacyclovir 1.0 g three times a day + anti-angina drugs, before 35.0) | side effects ([2]; human, in vivo) | lipidogram, peroxide acidization of lipids, electrocardiography, and tetrapolar rheography indicators ([2]; in the process of treatment, patient who took Valacyclovir) | vertigo and headaches ([2]; within seven weeks, Valacyclovir 1.0 g three times a day + anti-angina drugs) | use of nitroglycerine tablets ([2]; within seven weeks, before up to 8 times per day) | total cholesterol ([3]; after Valacyclovir 1.0 g 3×/day for 3 courses of 7 days, with standard treatment, goal value 5.0) [mmol/L] | total cholesterol [4] [mmol/L] | total cholesterol ([3]; after six months of simvastatin 10 mg/day, goal indicator 5.0) [mmol/L] |
| --- | --- | --- | --- | --- | --- | --- | --- | --- | --- | --- | --- | --- | --- | --- |
| Nc1nc2c(ncn2COCCO)c(=O)[nH]1 [Acyclovir] | does not provide long-term remission |  |  |  |  |  |  |  |  |  |  |  |  |  |
| CC(C)[C@H](N)C(=O)OCCOCn1cnc2c(=O)[nH]c(N)nc21 [Valacyclovir] | does not provide long-term remission | 0.31 | 0.47 | 3.68 | 0 | 0 | 0 | not observed | normalized | decreased | not used | 4.7 |  |  |
| CCC(C)(C)C(=O)O[C@H]1C[C@@H](C)C=C2C=C[C@H](C)[C@H](CC[C@@H]3C[C@@H](O)CC(=O)O3)[C@H]21 [simvastatin] |  |  |  |  |  |  |  |  |  |  |  |  | 3.9 | 4.9 |
